According to US5597915A, “Benzodiazepine derivatives, compositions containing them and their use in therapy” (Merck Sharp & Dohme Ltd., priority 1992, dated 1997):

What was measured:
CCK Receptor (Pancreas) = target: T1, CCK Receptor (Pancreas) (Rattus norvegicus, UniProt P30551); experiment: CCK Receptor Binding (Pancreas): inhibition of 125I-CCK-8 binding to rat pancreas membranes; set-up: species or system rat (male Sprague-Dawley); settings: 50 pM 125I-CCK-8, 25° C., 2 hours, pH 6.5
T1 construct: The whole pancreas was dissected free of fat tissue and was homogenized; from tissue; host or cells: rat whole pancreas homogenate/membranes
T1 sequence (P30551 1-444): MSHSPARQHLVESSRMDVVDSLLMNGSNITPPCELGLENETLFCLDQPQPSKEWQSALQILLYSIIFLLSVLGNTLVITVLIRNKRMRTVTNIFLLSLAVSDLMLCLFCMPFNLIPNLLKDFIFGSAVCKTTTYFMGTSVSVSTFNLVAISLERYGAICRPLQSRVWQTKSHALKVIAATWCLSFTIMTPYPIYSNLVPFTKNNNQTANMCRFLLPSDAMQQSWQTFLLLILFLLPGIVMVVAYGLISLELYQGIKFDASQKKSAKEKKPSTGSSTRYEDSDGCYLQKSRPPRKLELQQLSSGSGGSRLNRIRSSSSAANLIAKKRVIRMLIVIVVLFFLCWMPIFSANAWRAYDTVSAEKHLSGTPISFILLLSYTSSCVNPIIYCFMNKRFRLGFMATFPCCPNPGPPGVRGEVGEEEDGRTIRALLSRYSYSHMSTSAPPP
Method: 1. CCK Receptor Binding (Pancreas)
CCK-8 sulphated was radiolabelled with ^125 I-Bolton Hunter reagent (2000 Ci/mmole). Receptor binding was performed according to Chang and Lotti (Proc. Natl. Acad. Sci. 83, 4923-4926, 1986) with minor modifications.
Male Sprague-Dawley rats (150-200 g) were sacrificed by decapitation. The whole pancreas was dissected free of fat tissue and was homogenized in 25 volumes of ice-cold 10 mM N-2-hydroxyethyl-piperazine-N'-2-ethane sulphonic acid (HEPES) buffer with 0.1% soya bean trypsin inhibitor (pH 7.4 at 25° C.) with a Kinematica Polytron. The homogenates were centrifuged at 47,800 g for 10 min. Pellets were resuspended in 10 volumes of binding assay buffer (20mM (HEPES)), 1 mM ethylene glycol-bis-(β-aminoethylether-N,N'-tetraacetic acid) (EGTA), 5 mM MgCl2, 150 mM NaCl, bacitracin 0.25 mg/ml, soya bean trypsin inhibitor 0.1 mg/ml, and bovine serum albumin 2 mg/ml pH 6.5 at 25° C.) using a Teflon (trademark) homogenizer, 15 strokes at 500 rpm. The homogenate was further diluted in binding assay buffer to give a final concentration of 0.5 mg original wet weight/1 ml buffer. […] The radioactivity on the filters was counted with a LKB gamma counter. […]

CCK Receptor (Brain) = target: T2, CCK Receptor (Brain) (Cavia porcellus, UniProt H0VZC5); experiment: CCK Receptor Binding (Brain): inhibition of 125I-CCK-8 binding to guinea pig cortex membranes; set-up: species or system guinea pig (male Hartley); settings: 50 pM 125I-CCK-8, 25° C., 2 hours, pH 6.5
T2 construct: the cortex was removed and homogenized in 25 mL ice-cold 0.32 M sucrose; from tissue; host or cells: guinea pig cerebral cortex P2 membranes
T2 sequence (H0VZC5 1-426): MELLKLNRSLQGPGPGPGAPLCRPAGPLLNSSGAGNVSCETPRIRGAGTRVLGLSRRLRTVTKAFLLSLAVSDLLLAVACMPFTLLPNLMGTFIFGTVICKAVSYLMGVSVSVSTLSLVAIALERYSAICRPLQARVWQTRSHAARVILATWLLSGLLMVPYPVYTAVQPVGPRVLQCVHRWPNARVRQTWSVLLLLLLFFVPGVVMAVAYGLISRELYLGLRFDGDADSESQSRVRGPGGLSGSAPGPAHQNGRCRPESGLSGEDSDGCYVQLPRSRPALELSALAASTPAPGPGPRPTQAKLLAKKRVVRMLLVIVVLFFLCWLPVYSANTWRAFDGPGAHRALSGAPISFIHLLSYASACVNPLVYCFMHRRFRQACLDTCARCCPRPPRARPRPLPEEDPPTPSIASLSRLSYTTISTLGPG
Method: 2. CCK Receptor Binding (Brain)
CCK-8 sulphated was radiolabelled and the binding was performed according to the description for the pancreas method with minor modifications.
Male Hartley guinea pigs (300-500 g) were sacrificed by decapitation and the cortex was removed and homogenized in 25 mL ice-cold 0.32 M sucrose. The homogenates were centrifuged at 1000 g for 10 minutes and the resulting supernatant was recentrifuged at 20,000 g for 20 minutes. The P2 pellet was resuspended in binding assay buffer (20 mM HEPES, 5 mM MgCl2, 0.25 mg/ml bacitracin, 1 mM EGTA pH 6.5 at 25° C.), using a Teflon (trademark) homogenizer (5 strokes at 500 rpm) to give a final concentration of 10 mg original wet weight /1.2 ml buffer. For the binding assay, 50 μl of buffer (for total binding) or unlabelled CCK-8 sulphated to give a final concentration of 1 μM (for nonspecific binding) or the compounds of Formula I (for determination of inhibition of ^125 I-CCK-8 binding) and 50 μl of 500 pM ^125 I-CCK-8 (i.e. final concentration of 50 pM) were added to 400 μl of the membrane suspensions in microfuge tubes. All assays were run in duplicate. […] The radioactivity on the filters was counted with a LKB gamma counter. […]

Row | SMILES | IC50 (CCK Receptor (Pancreas)) [nM] | IC50 (CCK Receptor (Brain)) [nM]
1 | CN1C(=O)C(NC(=O)Nc2cccc(-c3noc(=O)[nH]3)c2)N=C(C2CCC2)c2ccccc21 (racemic) [Example 2, N-[3(R,S)-5-Cyclobutyl-2,3-dihydro-1-methyl-2-oxo-1H-1,4-benzodiazepin-3-yl]N'-[3-(5-oxo-4H-1,2,4-oxadiazolin-3-yl)phenyl]urea] | 110 | 5.98
2 | CN1C(=O)[C@H](NC(=O)Nc2cccc(-c3noc(=O)[nH]3)c2)N=C(C2CCCCC2)c2ccccc21 [Example 1, N-[3(R)-5-Cyclohexyl-2,3-dihydro-1-methyl-2-oxo-1H-1,4-benzodiazepin-3-yl]N'-[3-(5-oxo-4H-1,2,4-oxadiazolin,3-yl)phenyl]urea] | 500 | 0.123
